Measurements from patent publication US10577404B2, “Polypeptide derivatives from grass carp interferon and application thereof” (priority 2018, dated 2020).
Like-named read-outs stand apart in the source and are kept apart here. Ends that are not written are not given here.

Experiments:
[1] = system: red blood cells of grass carp; assay: Hemolytic toxicity test on erythrocytes; type: cell-based; details: concentration 64 μM or above
Protocol: (§1) (1) 1 ml of blood of fresh grass carp and BALB/c mice are collected respectively and stored with heparin sodium for anticoagulation.
(§2) (2) The fresh plasma solutions obtained in step (1) are centrifuged under 1000 g for 5 minutes, the supernatant is discarded, and red blood cells are collected.
(§3) (3) The collected red blood cells are washed 3 times with PBS buffer, centrifuged under 1000 g for 5 minutes each time, and finally resuspended in 5 ml of PBS buffer.
(§4) 50 μl PBS+50 μl red blood cell suspension is used as a negative control, and 50 μl of red blood cell suspension+50 μl of 0.2% Triton X-100 is used as a positive control.
(§5) (6) After 1 hour, the 96-well plate is taken out, and centrifuged under 1000 g for 5 minutes at 4° C.
(§6) (7) The supernatant of the above-mentioned centrifuged solutions is taken and placed on a clean 96-well plate again, and then absorbance is measured at 570 nm with a microplate reader.
(§7) (8) The average values of all the groups are compared and analyzed. The test is repeated three times. Calculation formula: Hemolysis rate=(absorbance of experimental group−absorbance of negative group)/(absorbance of positive group−absorbance of negative group)×100%. (9)

red blood cells of mice = assay: Hemolytic toxicity test on erythrocytes; type: cell-based, BALB/c mice; details: concentration 64 μM or above
Protocol: as §1, §2, §3, §4, §5, §6, §7

grass carp CIK cells = assay: Cytotoxicity test (MTT method); type: cell-based; details: final concentration 128 μM, 24 hours
From the text: (§8) Cytotoxicity test of the interferon-derived polypeptide on human HEK293T cells and grass carp CIK cells:
(§9) The MTT method, also known as the MTT colorimetric method, is a method for measuring cell proliferation and cell survival rate. The detection principle is that the […] in the living cell mitochondria can reduce the exogenous MTT to a water-insoluble blue-purple crystalline Formazan which deposits in the cells, while the dead cells have no such function. DMSO can dissolve Formazan in the cells, and through measuring its absorbance by using an enzyme-linked immunosorbent detector at a wavelength of 492 nm, the number of living cells can be reflected indirectly. Within a certain range of the number of cells, the amount of the formed MTT crystal is proportional to the number of cells.
(§10) (1) Cell preparation: A human HEK293T cell line and grass carp CIK cell line preserved in liquid nitrogen are resuscitated and cultured in DMEM containing 10% fetal bovine serum under the conditions of 37° C./28° C., 5% CO2, and saturated humidity. The culture solution is changed every other day, and the cell passage is carried out by trypsinization. When 80%-90% of the bottom of the flask is covered with cells, the cells are washed twice with PBS, 2 ml of 0.25% trypsin digestive juice is added, and the degree of digestion is observed under an inverted microscope; when most of the cells are rounded and the cells are in loose connection, it indicates moderate digestion and this process is about 3 minutes; the digestion is terminated by adding a DMEM or MEM medium containing fetal bovine serum, the digestive juice is poured off, and about 3 ml of the cell culture solution is added to thoroughly blow the cells to form a single cell suspension. Finally, the diluted cell suspension is added to a 96-well plate, and 50 μl of the diluted cell suspension is added to each well at a concentration of about 1×10^4 cells/well.
(§11) The cell wells without the interferon-derived polypeptide are used as positive control, and the cell well with the interferon-derived polypeptide but without the cells are used as negative control, and the culture is further continued for 24 hours.
(§12) (3) Reading: After culture for a certain period of time, […] (5 mg/ml) of MTT is directly added to each well, and after culture for 4 hours, 150 μl of DMSO is added and vibration is carried out for 10 minutes to dissolve the crystal, and the absorbance is then measured at 492 nm by the enzyme-linked immunosorbent detector. The test is repeated three times.
(§13) Survival rate=(absorbance of experimental group−absorbance of negative group)/(absorbance of positive group−absorbance of negative group)×100%. (5)

[2] = Cytotoxicity test (MTT method); type: cell-based
From the text: as §8, §9, §10, §11, §12, §13

human HEK293T cells = assay: Cytotoxicity test (MTT method); type: cell-based; details: 24 h, 128 µM
From the text: as §8, §9, §10, §11, §12, §13

[3] = Toxicity of the drug to mice without bacterial infection (safe dose); type: in vivo; details: intraperitoneal injection, no bacterial infection
Protocol: First, an appropriate drug treatment dose is selected through pre-tests, and an appropriate drug dose concentration is found through 3-5 different drug dose concentration groups. In addition, the toxicity of the drug to mice should be tested so as to preliminarily evaluate the safety of the drug, that is, in the absence of bacterial infection, only the mice are intraperitoneally injected with the interferon-derived polypeptide drug, and the safe dose range is <200 μg/head.

[4] = human, HEK293T cells, Survival rate of cells

Compound | hemolytic toxicity (in words) [1] | hemolytic toxicity (in words) (red blood cells of mice) | Survival rate of cells (grass carp CIK cells) [%] | viability at 24 h, 8 µM ([2]; CIK cells, grass carp CIK, final concentration 8 μM, read-out: Survival rate of cells) [%] | viability at 24 h, 16 µM ([2]; CIK cells, grass carp CIK, final concentration 16 μM, read-out: Survival rate of cells) [%] | viability at 24 h, 32 µM ([2]; CIK cells, grass carp CIK, final concentration 32 μM, read-out: Survival rate of cells) [%] | viability at 24 h, 64 µM ([2]; CIK cells, grass carp CIK, final concentration 64 μM, read-out: Survival rate of cells) [%] | viability at 24 h, 128 µM ([2]; CIK cells, grass carp CIK, final concentration 128 μM, read-out: Survival rate of cells) [%] | viability at 24 h, 8 µM [2, 4] [%] | viability at 24 h, 16 µM [2, 4] [%] | viability at 24 h, 32 µM [2, 4] [%] | viability at 24 h, 64 µM [2, 4] [%] | viability at 24 h, 128 µM [2, 4] [%] | Survival rate of cells (human HEK293T cells) [%] | safe dose range [3] [μg/head]
CC[C@H](C)[C@H](NC(=O)[C@H](CCCCN)NC(=O)[C@H](CCC(=O)O)NC(=O)[C@H](CCCCN)NC(=O)[C@H](CO)NC(=O)[C@H](CCCCN)NC(=O)[C@H](CCCNC(=N)N)NC(=O)[C@H](Cc1ccccc1)NC(=O)[C@H](Cc1ccccc1)NC(=O)[C@H](CC(=O)O)NC(=O)CNC(=O)[C@H](CC(C)C)NC(=O)[C@@H](N)CC(C)C)C(=O)NCC(=O)N[C@@H](CCCCN)C(=O)N[C@@H](CCC(=O)O)C(=O)N[C@@H](Cc1ccccc1)C(=O)N[C@@H](CCCCN)C(=O)N[C@@H](CCCNC(=N)N)C(=O)N[C@H](C(=O)N[C@H](C(=O)N[C@@H](CCC(N)=O)C(=O)N[C@@H](CCCNC(=N)N)C(=O)N[C@H](C(=O)N[C@@H](CCCCN)C(=O)N[C@@H](CC(=O)O)C(=O)N[C@@H](Cc1ccccc1)C(=O)N[C@@H](CC(C)C)C(=O)N[C@@H](CCCNC(=N)N)C(=O)N[C@@H](CC(N)=O)C(=O)N[C@@H](CC(C)C)C(=O)N[C@H](C(=O)N1CCC[C@H]1C(=O)N[C@@H](CCCNC(=N)N)C(=O)N[C@H](C(=O)N[C@@H](CCC(=O)O)C(=O)N[C@@H](CO)C(=O)O)[C@@H](C)O)C(C)C)[C@@H](C)CC)C(C)C)[C@@H](C)CC [LL37] | obvious | obvious | 15 |  |  |  |  |  |  |  |  |  |  |  | 
SYEKKINRHFKILKKNLKKK [Interferon-derived polypeptide] |  |  | 81 | 95.4 | 96.7 | 95.2 | 87 | > 80 | 98.3 | 97.2 | 93 | 89 | > 80 | 83 | < 200
